# How the values were obtained:
# [1] = test system: oral findings due to GVHD
# Experimental: Five other patients suffering from oral findings due to GVHD were treated with oral azathioprine solutions, using the method of the present invention. The patients were treated with 5 ml of a solution of AZA (5 mg/ml), three-four times daily. […] One patient (#5) was treated once with an oral rinse, and subsequently with a combination of an AZA rinse and AZA in a gel (5 mg/ml in a 3% methylcellulose base). The patients were not treated with any systemic immunosuppressant or steroid drug. The progress of each patient was reviewed at the times indicated.
# aphthous stomatitis = details: topical administration; cited from earlier work
# [2] = delayed-release oral capsule, improved ileocolonic delivery; cited from earlier work
# parodontosis = details: topical administration; cited from earlier work
# [3] = 50 mg/ml solution, 60 days at 25° C.; cited from earlier work
# corneal graft rejections = details: topical administration; cited from earlier work
# chronic oral GVHD = test: Case report: severe chronic oral GVHD refractory to systemic and topical therapies; details: when systemic prednisone was increased; tongue ulceration not resolved
# Experimental: They had continuing difficulties with GVHD, including oral involvement.
# Oral findings were consistent with pseudomembranous candidiasis, and an ulceration on the left cheek was consistent with minor trauma. […] Acute (grade II) GVHD (skin and liver) was treated with systemic corticosteroids.
# Leukoplakia involving the lateral borders of the tongue, consistent with hairy-like leukoplakia, developed. […] Oral changes included findings consistent with GVHD and reactivation of HSV. HSV and candida were confirmed on culture. […] Multiple dilated salivary ducts were visualized on the soft palate. Ulcerations of 3-4 mm in diameter were present on the lateral borders, the dorsum, and the tip of the tongue. […] Biopsy of the ulcer on the cheek was consistent with HSV.
# Extensive lichenoid striae with moderate erythema and ulceration involving the lateral tongue on the right and left and the right cheek was seen. A second oral biopsy of lip mucosa and minor salivary glands was completed, which was interpreted as grade II GVHD.
# The AZA suspension was made by combining AZA powder with a cherry flavored methylcellulose (1%) suspending vehicle to a final concentration of 5 mg/ml. […]
smiles,measurement,setting,value
"Cn1cnc([N+](=O)[O-])c1Sc1ncnc2nc[nH]c12 [AZA, azathioprine]",reduction in ulceration,[1]; all but one of the GVHD patients of Table 1,at least 50%
same,"reduction in pain, all the patients",[1]; all five GVHD patients of Table 1,at least 50%
same,"estimated global improvement, all the patients","[1]; all five GVHD patients of Table 1, compared to condition prior to treatment",≥ 40%
same,effect in the treatment of aphthous stomatitis,aphthous stomatitis,ineffective
same,systemic bioavailability,[2],dramatically reduced systemic bioavailability
same,effect in the treatment of parodontosis,parodontosis,some beneficial effect
same,retained share of the initial concentration,[3],at least 96%
same,effect in the treatment of corneal graft rejections,corneal graft rejections,ineffective
C[C@]12C=CC(=O)C=C1CC[C@@H]1[C@@H]2C(=O)C[C@@]2(C)[C@H]1CC[C@]2(O)C(=O)CO [prednisone],oral symptoms and signs,chronic oral GVHD,improved

# Reference: patent publication US7323471B1, “Topical azathioprine for the treatment of oral autoimmune diseases” (DOR Biopharma, Inc., priority 1999, dated 2008)
